How the values were obtained:
Assay in all cases: relative viability (nuclei count vs DMSO), 5 days (fraction); higher = more cells survive
AZ505 + AZD7762 = compound: C1CCC(CC1)N(CCNCCC2=C3C(=C(C=C2)O)NC(=O)CO3)C(=O)CCNCCC4=CC(=C(C=C4)Cl)Cl [AZ505] + NC(=O)Nc1cc(-c2cccc(F)c2)sc1C(=O)N[C@H]1CCCNC1 [AZD7762] (partner 0.2 µM)
In short: (§1)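 For relative viability, nuclei counts in treated wells were divided by those in vehicle wells. Lung cancer cell lines had been pin-tool dosed in 1536-well plates the day after seeding and cultured for 5 days, then fixed and stained in one step (final 0.05% Triton X-100, 1% formaldehyde, 1 ug/ml Hoechst) and imaged at 4×. Doses were one drug alone or a fixed anchor-drug dose plus five library-drug doses (not always all listed) in √10 steps, and values are duplicate-plate medians.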

Dactolisib + Phenformin = compound: Cn1c(=O)n(-c2ccc(C(C)(C)C#N)cc2)c2c3cc(-c4cnc5ccccc5c4)ccc3ncc21 [Dactolisib] + N=C(N)NC(=N)NCCc1ccccc1 [Phenformin] (partner 250 µM)
In short: as §1

AZ505 + Tozasertib = compound: C1CCC(CC1)N(CCNCCC2=C3C(=C(C=C2)O)NC(=O)CO3)C(=O)CCNCCC4=CC(=C(C=C4)Cl)Cl [AZ505] + Cc1cc(Nc2cc(N3CCN(C)CC3)nc(Sc3ccc(NC(=O)C4CC4)cc3)n2)n[nH]1 [Tozasertib] (partner 0.1 µM)
In short: as §1

AZ505 + Pemetrexed = compound: C1CCC(CC1)N(CCNCCC2=C3C(=C(C=C2)O)NC(=O)CO3)C(=O)CCNCCC4=CC(=C(C=C4)Cl)Cl [AZ505] + Nc1nc2[nH]cc(CCc3ccc(C(=O)N[C@@H](CCC(=O)O)C(=O)O)cc3)c2c(=O)[nH]1 [Pemetrexed] (partner 0.2 µM)
In short: as §1

Cell Line	relative viability (AZ505 + AZD7762; first compound 0.08 µM)	relative viability (AZ505 + AZD7762; first compound 0.253 µM)	relative viability (AZ505 + AZD7762; first compound 0.8 µM)	relative viability (AZ505 + AZD7762; first compound 2.53 µM)	relative viability (AZ505 + AZD7762; first compound 8 µM)	relative viability (Dactolisib + Phenformin; first compound 0.002 µM)	relative viability (Dactolisib + Phenformin; first compound 0.006325 µM)	relative viability (Dactolisib + Phenformin; first compound 0.02 µM)	relative viability (Dactolisib + Phenformin; first compound 0.06325 µM)	relative viability (Dactolisib + Phenformin; first compound 0.2 µM)	relative viability (AZ505 + Tozasertib; first compound 0.08 µM)	relative viability (AZ505 + Tozasertib; first compound 0.253 µM)	relative viability (AZ505 + Tozasertib; first compound 0.8 µM)	relative viability (AZ505 + Tozasertib; first compound 2.53 µM)	relative viability (AZ505 + Tozasertib; first compound 8 µM)	relative viability (AZ505 + Pemetrexed; first compound 0.08 µM)	relative viability (AZ505 + Pemetrexed; first compound 0.253 µM)	relative viability (AZ505 + Pemetrexed; first compound 0.8 µM)	relative viability (AZ505 + Pemetrexed; first compound 2.53 µM)	relative viability (AZ505 + Pemetrexed; first compound 8 µM)
LK-2	0.512	0.264	0.597	0.342	0.403	0.297	0.324	0.248	0.146	0.114	0.17	0.167	0.197	0.167	0.184	0.215	0.254	0.294	0.283	0.313
LOU-NH91	0.734	0.737	0.744	0.775	0.781	0.625	0.731	0.642	0.437	0.447	0.654	0.696	0.577	0.591	0.625	0.327	0.338	0.324	0.382	0.349
LU99A	0.341	0.54	0.358		0.361	0.871	0.761	0.682	0.443	0.258		0.306	0.279	0.286	0.332	0.199	0.22	0.19		0.199
LXF-289	1.07	1.04	1.14	1.03	1.16	0.571	0.499	0.534	0.518	0.439	0.2	0.172	0.183	0.21	0.229	0.84	0.92	0.785	0.932	0.903
NCI-H23	0.228	0.146	0.255	0.268	0.157	0.807	0.795	0.736	0.359	0.316	0.388		0.392	0.402	0.327	0.638	0.506	0.604	0.73	0.668
NCI-H322M	0.629		0.582	0.616	0.545	0.822	0.745	0.713	0.617	0.485	0.451	0.478	0.467	0.484	0.465	0.604		0.61	0.647	0.648
NCI-H358	0.466	0.52	0.422		0.526	0.317	0.302	0.286	0.221	0.111	0.094	0.0964	0.0966	0.108	0.104	0.177	0.227	0.158	0.179	0.184
NCI-H441	0.876	1.14	1.06	1.36	1.54	1.28	0.737	0.812	0.337	0.289	0.564	0.546	0.625	0.534	0.589	0.254	0.272	0.278	0.308	0.262
NCI-H460	0.701	0.522	0.623	0.483	0.621	0.506	0.474	0.508	0.142	0.0635	0.481	0.0927	0.551	0.204	0.299	0.063	0.0565	0.0644	0.0703	0.0621
NCI-H522	0.678	0.747	0.727	1.11	0.887	0.591	0.647	0.548	0.535	0.631	0.459	0.552	0.488	0.603	0.674	1	1.04	1.03	1.22	0.808
NCI-H596	1.18		1.02	1.04	0.916	0.738	0.767	0.627	0.468	0.372	0.845	0.894	0.708	0.821	0.726	0.463		0.469	0.564	0.483
NCI-H647	0.344	0.226	0.539	0.576	0.722	0.536	0.449	0.429	0.156	0.105	0.46	0.425	0.277	0.372	0.363	0.158	0.155	0.195	0.196	0.184
NCI-H650	0.917	0.243	0.879	1.29	0.944	0.549	0.475	0.433	0.389	0.315	0.733	0.705	0.729	0.726	0.736	0.86	0.875	1.01	1.12	0.881
NCI-H838	0.888	0.955	0.936	0.951	0.985	0.628	0.423	0.267	0.201	0.175	0.253	0.286	0.257	0.268	0.265	0.251	0.253	0.252	0.246	0.221
NCI-H1355	0.677	0.474	0.757	0.689	0.858	0.497	0.429	0.43	0.373	0.316	0.57	0.534	0.586	0.534	0.527	0.953	1	1.03	0.996	1
NCI-H1395	0.407		0.413	0.386	0.382	0.445	0.485	0.453	0.377	0.373	0.781	0.823	0.625	0.695	0.767	0.919		0.733	0.969	1.04

Source: the supplement of paper PMC10307832
